Laboratory results from the NIST ThermoML archive (doi:10.1016/j.jct.2018.01.024).

Assay: mn = molality of the nth substance listed, in mol/kg
Settings: Liquid

NC(N)=O [urea] + O
Settings	mass density [kg/m3]
274.15 K, 101 kPa, Vibrating tube method, m1 = 0.093	1001.57
274.15 K, 101 kPa, Vibrating tube method, m1 = 0.1063	1001.81
274.15 K, 101 kPa, Vibrating tube method, m1 = 0.141	1002.43
274.15 K, 101 kPa, Vibrating tube method, m1 = 0.152	1002.62
274.15 K, 101 kPa, Vibrating tube method, m1 = 0.1809	1003.14
274.15 K, 101 kPa, Vibrating tube method, m1 = 0.2423	1004.22
274.15 K, 101 kPa, Vibrating tube method, m1 = 0.4362	1007.6
274.15 K, 101 kPa, Vibrating tube method, m1 = 0.5644	1009.79
274.15 K, 101 kPa, Vibrating tube method, m1 = 1.008	1017.11
274.15 K, 101 kPa, Vibrating tube method, m1 = 1.609	1026.44
274.15 K, 101 kPa, Vibrating tube method, m1 = 2.505	1039.26
275.15 K, 101 kPa, Vibrating tube method, m1 = 0.093	1001.6
275.15 K, 101 kPa, Vibrating tube method, m1 = 0.1063	1001.84
275.15 K, 101 kPa, Vibrating tube method, m1 = 0.141	1002.45
275.15 K, 101 kPa, Vibrating tube method, m1 = 0.152	1002.64
275.15 K, 101 kPa, Vibrating tube method, m1 = 0.1809	1003.16
275.15 K, 101 kPa, Vibrating tube method, m1 = 0.2423	1004.23
275.15 K, 101 kPa, Vibrating tube method, m1 = 0.4362	1007.59
275.15 K, 101 kPa, Vibrating tube method, m1 = 0.5644	1009.77
275.15 K, 101 kPa, Vibrating tube method, m1 = 1.008	1017.04
275.15 K, 101 kPa, Vibrating tube method, m1 = 1.609	1026.31
275.15 K, 101 kPa, Vibrating tube method, m1 = 2.505	1039.07
276.15 K, 101 kPa, Vibrating tube method, m1 = 0.093	1001.61
276.15 K, 101 kPa, Vibrating tube method, m1 = 0.1063	1001.85
276.15 K, 101 kPa, Vibrating tube method, m1 = 0.141	1002.46
276.15 K, 101 kPa, Vibrating tube method, m1 = 0.152	1002.65
276.15 K, 101 kPa, Vibrating tube method, m1 = 0.1809	1003.16
276.15 K, 101 kPa, Vibrating tube method, m1 = 0.2423	1004.22
276.15 K, 101 kPa, Vibrating tube method, m1 = 0.4362	1007.56
276.15 K, 101 kPa, Vibrating tube method, m1 = 0.5644	1009.73
276.15 K, 101 kPa, Vibrating tube method, m1 = 1.008	1016.96
276.15 K, 101 kPa, Vibrating tube method, m1 = 1.609	1026.17
276.15 K, 101 kPa, Vibrating tube method, m1 = 2.505	1038.86
277.15 K, 101 kPa, Vibrating tube method, m1 = 0.093	1001.61
277.15 K, 101 kPa, Vibrating tube method, m1 = 0.1063	1001.85
277.15 K, 101 kPa, Vibrating tube method, m1 = 0.141	1002.45
277.15 K, 101 kPa, Vibrating tube method, m1 = 0.152	1002.64
277.15 K, 101 kPa, Vibrating tube method, m1 = 0.1809	1003.15
277.15 K, 101 kPa, Vibrating tube method, m1 = 0.2423	1004.2
277.15 K, 101 kPa, Vibrating tube method, m1 = 0.4362	1007.52
277.15 K, 101 kPa, Vibrating tube method, m1 = 0.5644	1009.67
277.15 K, 101 kPa, Vibrating tube method, m1 = 1.008	1016.85
277.15 K, 101 kPa, Vibrating tube method, m1 = 1.609	1026.02
277.15 K, 101 kPa, Vibrating tube method, m1 = 2.505	1038.66
278.15 K, 101 kPa, Vibrating tube method, m1 = 0.093	1001.59
278.15 K, 101 kPa, Vibrating tube method, m1 = 0.1063	1001.82
278.15 K, 101 kPa, Vibrating tube method, m1 = 0.141	1002.42
278.15 K, 101 kPa, Vibrating tube method, m1 = 0.152	1002.61
278.15 K, 101 kPa, Vibrating tube method, m1 = 0.1809	1003.12
278.15 K, 101 kPa, Vibrating tube method, m1 = 0.2423	1004.17
278.15 K, 101 kPa, Vibrating tube method, m1 = 0.4362	1007.46
278.15 K, 101 kPa, Vibrating tube method, m1 = 0.5644	1009.6
278.15 K, 101 kPa, Vibrating tube method, m1 = 1.008	1016.74
278.15 K, 101 kPa, Vibrating tube method, m1 = 1.609	1025.85
278.15 K, 101 kPa, Vibrating tube method, m1 = 2.505	1038.42
278.15 K, 101 kPa, Vibrating tube method, m1 = 3.376	1049.57
278.15 K, 101 kPa, Vibrating tube method, m1 = 4.33	1060.83
278.15 K, 101 kPa, Vibrating tube method, m1 = 5.39	1072.16
278.15 K, 101 kPa, Vibrating tube method, m1 = 8	1096.24
278.15 K, 101 kPa, Vibrating tube method, m1 = 9.9	1110.86
278.15 K, 101 kPa, Vibrating tube method, m1 = 12.8	1129.78
278.15 K, 10000 kPa, Constant-volume piezometry, m1 = 0.1809	1007.91
278.15 K, 10000 kPa, Constant-volume piezometry, m1 = 0.4362	1012.23
278.15 K, 10000 kPa, Constant-volume piezometry, m1 = 0.5644	1014.35
278.15 K, 10000 kPa, Constant-volume piezometry, m1 = 1.609	1030.49
278.15 K, 10000 kPa, Constant-volume piezometry, m1 = 2.505	1042.94
278.15 K, 10000 kPa, Constant-volume piezometry, m1 = 3.376	1053.98
278.15 K, 10000 kPa, Constant-volume piezometry, m1 = 5.39	1076.38
278.15 K, 10000 kPa, Constant-volume piezometry, m1 = 8	1100.31
278.15 K, 10000 kPa, Constant-volume piezometry, m1 = 10.99	1122.33
278.15 K, 10000 kPa, Constant-volume piezometry, m1 = 12.8	1133.68
278.15 K, 25000 kPa, Constant-volume piezometry, m1 = 0.1809	1014.96
278.15 K, 25000 kPa, Constant-volume piezometry, m1 = 0.4362	1019.23
278.15 K, 25000 kPa, Constant-volume piezometry, m1 = 0.5644	1021.32
278.15 K, 25000 kPa, Constant-volume piezometry, m1 = 1.609	1037.26
278.15 K, 25000 kPa, Constant-volume piezometry, m1 = 2.505	1049.56
278.15 K, 25000 kPa, Constant-volume piezometry, m1 = 3.376	1060.45
278.15 K, 25000 kPa, Constant-volume piezometry, m1 = 5.39	1082.6
278.15 K, 25000 kPa, Constant-volume piezometry, m1 = 8	1106.3
278.15 K, 25000 kPa, Constant-volume piezometry, m1 = 10.99	1128.15
278.15 K, 25000 kPa, Constant-volume piezometry, m1 = 12.8	1139.4
278.15 K, 50000 kPa, Constant-volume piezometry, m1 = 0.1809	1026.22
278.15 K, 50000 kPa, Constant-volume piezometry, m1 = 0.4362	1030.39
278.15 K, 50000 kPa, Constant-volume piezometry, m1 = 0.5644	1032.44
278.15 K, 50000 kPa, Constant-volume piezometry, m1 = 1.609	1048.03
278.15 K, 50000 kPa, Constant-volume piezometry, m1 = 2.505	1060.07
278.15 K, 50000 kPa, Constant-volume piezometry, m1 = 3.376	1070.75
278.15 K, 50000 kPa, Constant-volume piezometry, m1 = 5.39	1092.51
278.15 K, 50000 kPa, Constant-volume piezometry, m1 = 8	1115.83
278.15 K, 50000 kPa, Constant-volume piezometry, m1 = 10.99	1137.36
278.15 K, 50000 kPa, Constant-volume piezometry, m1 = 12.8	1148.51
278.15 K, 75000 kPa, Constant-volume piezometry, m1 = 0.1809	1036.88
278.15 K, 75000 kPa, Constant-volume piezometry, m1 = 0.4362	1040.96
278.15 K, 75000 kPa, Constant-volume piezometry, m1 = 0.5644	1042.96
278.15 K, 75000 kPa, Constant-volume piezometry, m1 = 1.609	1058.21
278.15 K, 75000 kPa, Constant-volume piezometry, m1 = 2.505	1069.97
278.15 K, 75000 kPa, Constant-volume piezometry, m1 = 3.376	1080.48
278.15 K, 75000 kPa, Constant-volume piezometry, m1 = 5.39	1101.91
278.15 K, 75000 kPa, Constant-volume piezometry, m1 = 8	1124.88
278.15 K, 75000 kPa, Constant-volume piezometry, m1 = 10.99	1146.09
278.15 K, 75000 kPa, Constant-volume piezometry, m1 = 12.8	1157.08
278.15 K, 100000 kPa, Constant-volume piezometry, m1 = 0.1809	1046.98
278.15 K, 100000 kPa, Constant-volume piezometry, m1 = 0.4362	1050.97
278.15 K, 100000 kPa, Constant-volume piezometry, m1 = 0.5644	1052.94
278.15 K, 100000 kPa, Constant-volume piezometry, m1 = 1.609	1067.87
278.15 K, 100000 kPa, Constant-volume piezometry, m1 = 2.505	1079.44
278.15 K, 100000 kPa, Constant-volume piezometry, m1 = 3.376	1089.73
278.15 K, 100000 kPa, Constant-volume piezometry, m1 = 5.39	1110.78
278.15 K, 100000 kPa, Constant-volume piezometry, m1 = 8	1133.5
278.15 K, 100000 kPa, Constant-volume piezometry, m1 = 10.99	1154.43
278.15 K, 100000 kPa, Constant-volume piezometry, m1 = 12.8	1165.23
279.15 K, 101 kPa, Vibrating tube method, m1 = 0.093	1001.56
